Measured values reported in patent publication US20030096958A1, “Human NHE2” (Pfizer Inc., priority 2001, published 2003).
Where two headings read alike, the source gives them in different places.

Experiments:
human NHE2-SF = biological target: T1, human NHE2-SF (Homo sapiens, UniProt Q9UBY0); assay: FLIPR assay of Na+/H+ exchange (BCECF fluorescence recovery) in human NHE2-SF transfected PS120 cells; assay type: cell-based
T1 construct: NotI/BgIII fragments including each of the entire coding regions were subcloned into pcDNA3.1(−) vectors; expressed in transfected cells; two lines tested
T1 sequence (Q9UBY0 116-812): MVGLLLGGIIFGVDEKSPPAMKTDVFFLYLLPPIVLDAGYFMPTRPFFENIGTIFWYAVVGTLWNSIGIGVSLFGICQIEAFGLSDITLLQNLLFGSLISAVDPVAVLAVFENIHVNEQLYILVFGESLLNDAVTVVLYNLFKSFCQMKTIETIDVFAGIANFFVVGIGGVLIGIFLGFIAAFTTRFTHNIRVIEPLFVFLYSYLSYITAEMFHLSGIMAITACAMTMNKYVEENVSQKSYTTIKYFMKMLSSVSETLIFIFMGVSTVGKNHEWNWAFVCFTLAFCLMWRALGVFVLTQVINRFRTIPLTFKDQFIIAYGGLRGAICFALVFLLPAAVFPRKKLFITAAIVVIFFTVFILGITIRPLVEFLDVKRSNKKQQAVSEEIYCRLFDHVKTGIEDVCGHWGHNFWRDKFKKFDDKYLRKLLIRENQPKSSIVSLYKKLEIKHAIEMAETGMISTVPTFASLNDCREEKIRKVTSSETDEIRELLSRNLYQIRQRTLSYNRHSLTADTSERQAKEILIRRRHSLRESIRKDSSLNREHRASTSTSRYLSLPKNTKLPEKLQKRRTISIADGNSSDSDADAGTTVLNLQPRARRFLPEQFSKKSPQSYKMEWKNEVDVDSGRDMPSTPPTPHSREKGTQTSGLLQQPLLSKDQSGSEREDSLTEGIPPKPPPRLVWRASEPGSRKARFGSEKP
Method: (§1) Human NHE2-LF and human NHE2-SF transfected PS120 cells were grown to confluence in collagen coated Fluorescent Laser Imaging Plate Reader (FLIPR) plates. To remove growth medium, the cells were washed with a 10 mM Hepes buffer, pH 7.4. A pH sensitive fluorescent dye, BCECF, AM (5 μM) (Molecular Probes, Eugene, Oreg.), was added to each well and the plates were incubated in a 37° C. humidified 5% CO2 incubator for approximately 20 minutes.
(§2) The cells were then washed with 30 mM NH4Cl buffer, pH 7.5, to remove excess dye. Plates were incubated with this buffer for approximately 45 minutes in a 37° C. humidified incubator.
(§3) 5-(N,N-Hexamethylene)-amiloride ((hexa)-amiloride), amiloride, or a vehicle, was then added to each well and allowed to incubate for a minimum of 5 minutes prior to the initiation of intracellular acidification. The NH4Cl buffer was removed and the plates were placed on the FLIPR to establish a baseline fluorescence. A 10 mM hepes buffer, pH 7.4, containing the appropriate concentration of test compound or vehicle was added to each well of the plate. (This process initiates intracellular acidification and the quenching of BCECF-related fluorescence. The resultant activation of the Na^+/H^+ exchanger and the decrease in intracellular H^+ ions produces in gradual increase in dye fluorescence towards baseline.) Changes in fluorescence were measured by the FLIPR over a period of 7 min. Activity of the exchanger was calculated based on the percentage of fluorescence recovery as compared to control in the presence of varying concentrations of compounds (Table 2).

human NHE2-LF = biological target: T2, human NHE2-LF (Homo sapiens, UniProt Q9UBY0); assay: FLIPR assay of Na+/H+ exchange (BCECF fluorescence recovery) in human NHE2-LF transfected PS120 cells; assay type: cell-based; details: read-out: IC50 Values Determined By FLIPR, NHE2-LF
T2 construct: expressed in transfected cells
T2 sequence (Q9UBY0 1-812): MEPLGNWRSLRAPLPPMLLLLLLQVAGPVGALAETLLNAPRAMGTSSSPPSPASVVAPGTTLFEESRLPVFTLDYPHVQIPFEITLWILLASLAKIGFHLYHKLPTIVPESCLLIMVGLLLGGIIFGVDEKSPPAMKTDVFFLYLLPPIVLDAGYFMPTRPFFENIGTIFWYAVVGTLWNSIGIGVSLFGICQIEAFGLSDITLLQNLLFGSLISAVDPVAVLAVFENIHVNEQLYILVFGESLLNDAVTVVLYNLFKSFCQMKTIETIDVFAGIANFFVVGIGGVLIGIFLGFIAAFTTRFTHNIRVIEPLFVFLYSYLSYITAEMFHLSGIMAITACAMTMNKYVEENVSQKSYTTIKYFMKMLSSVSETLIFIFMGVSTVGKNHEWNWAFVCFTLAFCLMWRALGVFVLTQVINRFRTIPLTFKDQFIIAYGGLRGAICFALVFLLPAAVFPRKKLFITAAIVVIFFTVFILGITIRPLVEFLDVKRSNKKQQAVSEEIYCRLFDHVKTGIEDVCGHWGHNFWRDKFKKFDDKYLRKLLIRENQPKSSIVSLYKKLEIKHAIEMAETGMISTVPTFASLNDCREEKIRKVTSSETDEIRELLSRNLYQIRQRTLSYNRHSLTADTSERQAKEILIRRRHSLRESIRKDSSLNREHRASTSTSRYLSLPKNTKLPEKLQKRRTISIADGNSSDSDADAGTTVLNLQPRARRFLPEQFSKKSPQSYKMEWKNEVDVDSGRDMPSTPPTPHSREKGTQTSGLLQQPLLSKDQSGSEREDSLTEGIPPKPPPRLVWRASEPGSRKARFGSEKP
Method: as §1, §2
as §3, with “A 10 mM hepes buffer, pH 7.4, containing the appropriate concentration of test compound or vehicle was added to each well of the plate.” left out, “Activity of the exchanger was calculated based on the percentage of fluorescence recovery as compared to control in the presence of varying concentrations of compounds (Table 2).” left out

[1] = line #2, read-out: IC50 Values Determined By FLIPR, NHE2-SF line #2
[2] = line #, read-out: IC50 Values Determined By FLIPR, NHE2-SF line #

| Compound | IC50 (human NHE2-SF; [1]) | IC50 (human NHE2-SF; [2]) | IC50 (human NHE2-LF) |
| --- | --- | --- | --- |
| NC(N)=NC(=O)c1nc(Cl)c(N2CCCCCC2)nc1N [(hexa)-Amiloride, 5-(N,N-Hexamethylene)-amiloride] | 45 nM | 23 nM | 7480 nM |
| N=C(N)NC(=O)c1nc(Cl)c(N)nc1N [Amiloride, amiloride] | 1370 nM | 1700 nM | 27000 nM |
